Data as given in patent publication US10556905B2, “Processes for preparing a diazabicyclooctane compound” (priority 2012, dated 2020).
Read-outs that look alike come from different tables or passages of the source.

What was measured:
[1] = target: T1, TEM-1 (Escherichia coli, UniProt P62593); test: β-Lactamase inhibitory activity (nitrocefin hydrolysis), TEM-1; format: biochemical; settings: TEM-1 0.1 nM, 100 μM nitrocefin, pre-incubation 30° C. 10 minutes
T1 construct: AmpC, TEM-1, KPC-2 or OXA-2 domain excluding signal peptide was amplified with PCR; made in house; host or cells: Escherichia coli BL21 (DE3), pET-28b(+)
T1 sequence (P62593 24-286 limits assumed): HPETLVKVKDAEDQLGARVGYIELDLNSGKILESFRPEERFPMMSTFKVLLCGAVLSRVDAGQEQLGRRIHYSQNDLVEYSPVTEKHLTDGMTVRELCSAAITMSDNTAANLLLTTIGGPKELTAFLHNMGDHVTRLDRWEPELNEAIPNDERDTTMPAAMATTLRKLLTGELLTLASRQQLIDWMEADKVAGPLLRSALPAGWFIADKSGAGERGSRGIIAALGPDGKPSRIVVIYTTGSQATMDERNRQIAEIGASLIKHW
Description: Using Pseudomonas aeruginosa ATCCBAA-47 genome, plasmid pBR322, Klebsiella pneumoniae ATCCBAA-1705, and P. aeruginosa MSC17696 as a template, each DNA for encoding β-lactamase, AmpC, TEM-1, KPC-2 or OXA-2 domain excluding signal peptide was amplified with PCR. Each of the PCR product was incorporated into pET-28b(+)vector (Merck), introduced into Escherichia coli BL21 (DE3) (Merck), and, under induction of 1 mM isopropyl-β-D-(−)-thiogalactopyranoside (Nacalai Tesque), cultured overnight at 20° C. to express AmpC, TEM-1, KPC-2, and OXA-2. After the bacterial cell was collected, AmpC was purified from the cell extract obtained by ultrasonic treatment, using CM Sepharose Fast Flow (GE Healthcare) and HiTrap Heparin HP (GE Healthcare) at 4° C. TEM-1 was purified with HiTrap SPHP (GE Healthcare), HiTrap Q (GE Healthcare) and Mono Q (GE Healthcare), and KPC-2 was purified with HiTrap SPHP. OXA-2 was purified with HiTrap SPHP and HiTrap Heparin HP.
For the measurement of β-lactamase inhibitory activity, 100 μM (final concentration) nitrocefin (Oxoid) was used as a substrate, and 2.5% DMSO, 10 μg/mL bovine serum derived albumin (Sigma-Aldrich) and 50 mM phosphate buffer at pH 7.0 were used as a reaction solution. […] Nitrocefin was added to each well to be mixed therein, followed by incubation at 30° C. for 20 minutes, and Multiscan Ascent (Thermo Fisher Scientific) was used to measure 492 nm wavelength, thereby measuring nitrocefin hydrolytic activity of β-Lactamase, to determine enzyme inhibitory activity. […] As the inhibitory activity strength, less than 0.1 μM, less than 1 μM, less than 3 μM, less than 10 μM, and 10 μM or more were shown with A, B, C, D, and E respectively.

[2] = target: T2, AmpC (Pseudomonas aeruginosa, UniProt P24735); test: biochemical
T2 construct: AmpC, TEM-1, KPC-2 or OXA-2 domain excluding signal peptide was amplified with PCR; made in house; host or cells: Escherichia coli BL21 (DE3), pET-28b(+)
T2 sequence (P24735 27-397): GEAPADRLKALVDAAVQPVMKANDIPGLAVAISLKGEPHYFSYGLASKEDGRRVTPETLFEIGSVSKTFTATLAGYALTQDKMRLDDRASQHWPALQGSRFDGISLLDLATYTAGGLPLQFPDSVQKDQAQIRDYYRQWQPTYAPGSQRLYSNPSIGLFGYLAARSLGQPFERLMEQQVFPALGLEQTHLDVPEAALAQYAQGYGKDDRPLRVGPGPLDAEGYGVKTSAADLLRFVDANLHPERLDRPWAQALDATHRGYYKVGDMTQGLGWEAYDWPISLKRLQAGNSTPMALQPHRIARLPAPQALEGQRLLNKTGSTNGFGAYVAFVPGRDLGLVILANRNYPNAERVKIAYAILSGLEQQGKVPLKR

[3] = target: T3, KPC-2 (Klebsiella pneumoniae, UniProt Q9F663); test: β-Lactamase inhibitory activity (nitrocefin hydrolysis), KPC-2; format: biochemical; settings: KPC-2 0.5 nM, 100 μM nitrocefin, pre-incubation 30° C. 10 minutes
T3 construct: AmpC, TEM-1, KPC-2 or OXA-2 domain excluding signal peptide was amplified with PCR; made in house; host or cells: Escherichia coli BL21 (DE3), pET-28b(+)
T3 sequence (Q9F663 25-293, looked up): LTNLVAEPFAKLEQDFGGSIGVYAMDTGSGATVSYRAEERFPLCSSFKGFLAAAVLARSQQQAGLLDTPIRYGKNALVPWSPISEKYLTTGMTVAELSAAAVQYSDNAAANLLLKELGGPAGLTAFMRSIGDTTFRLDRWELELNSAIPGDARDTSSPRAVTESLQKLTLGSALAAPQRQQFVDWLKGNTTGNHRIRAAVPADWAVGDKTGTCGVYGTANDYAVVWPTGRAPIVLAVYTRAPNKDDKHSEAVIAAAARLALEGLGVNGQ

[4] = target: T4, OXA-2 (Escherichia coli, UniProt P0A1V9); test: biochemical; parameters: species or system P. aeruginosa
T4 construct: AmpC, TEM-1, KPC-2 or OXA-2 domain excluding signal peptide was amplified with PCR; made in house; host or cells: Escherichia coli BL21 (DE3), pET-28b(+)
T4 sequence (P0A1V9 22-275): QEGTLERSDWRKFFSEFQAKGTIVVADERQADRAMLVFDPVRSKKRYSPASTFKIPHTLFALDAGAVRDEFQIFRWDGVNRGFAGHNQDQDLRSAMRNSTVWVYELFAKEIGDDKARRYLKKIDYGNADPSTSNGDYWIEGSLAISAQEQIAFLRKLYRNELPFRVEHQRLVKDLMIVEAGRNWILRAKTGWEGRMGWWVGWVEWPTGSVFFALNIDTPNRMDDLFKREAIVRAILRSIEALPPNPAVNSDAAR

[5] = OXA-2 2 nM, 100 μM nitrocefin, pre-incubation 30° C. 10 minutes, read-out: β-Lactamase inhibitory activity OXA-2 (IC50)

| SMILES | IC50 [1] [nM] | IC50 [2] [nM] | IC50 [3] [nM] | IC50 [4] [nM] | IC50 [4, 5] [nM] |
| --- | --- | --- | --- | --- | --- |
| O=C(NOCC1CCC1)[C@@H]1CC[C@@H]2CN1C(=O)N2OS(=O)(=O)O [Example 58, Sodium (2S,5R)—N-(cyclobutylmethoxy)-7-oxo-6-(sulfooxy)-1,6-diazabicyclo[3.2.1]octane-2-carboxamide] | < 100 | < 100 | < 100 | 100 to 1000 |  |
| CC(C)(C)OC(=O)NCCONC(=O)[C@@H]1CC[C@@H]2CN1C(=O)N2OS(=O)(=O)O [Example 60, Sodium tert-butyl {2-[({[(2S,5R)-7-oxo-6-(sulfooxy)-1,6-diazabicyclo[3.2.1]oct-2-yl]carbonyl}amino)oxy]ethyl}carbamate] | < 100 | 100 to 1000 | 100 to 1000 | 100 to 1000 |  |
| CNCCONC(=O)[C@@H]1CC[C@@H]2CN1C(=O)N2OS(=O)(=O)O [Example 61, (2S,5R)—N-[2-(Methylamino)ethoxy]-7-oxo-6-(sulfooxy)-1,6-diazabicyclo[3.2.1]octane-2-carboxamide] | < 100 | 100 to 1000 | 1000 to 3000 |  | 1000 to 3000 |
| CCNCCONC(=O)[C@@H]1CC[C@@H]2CN1C(=O)N2OS(=O)(=O)O [Example 62, (2S,5R)—N-[2-(Ethylamino)ethoxy]-7-oxo-6-(sulfooxy)-1,6-diazabicyclo[3.2.1]octane-2-carboxamide] | < 100 | 100 to 1000 | 100 to 1000 |  | 1000 to 3000 |
| CCCNCCONC(=O)[C@@H]1CC[C@@H]2CN1C(=O)N2OS(=O)(=O)O [Example 63, (2S,5R)-7-Oxo-N-[2-(propylamino)ethoxy]-6-(sulfooxy)-1,6-diazabicyclo[3.2.1]octane-2-carboxamide] | < 100 | 100 to 1000 | 100 to 1000 |  | 1000 to 3000 |
| CC(C)NCCONC(=O)[C@@H]1CC[C@@H]2CN1C(=O)N2OS(=O)(=O)O [Example 64, (2S,5R)-7-Oxo-N-[2-(propan-2-ylamino)ethoxy]-6-(sulfooxy)-1,6-diazabicyclo[3.2.1]octane-2-carboxamide] | < 100 | 100 to 1000 | 100 to 1000 |  | 1000 to 3000 |
| CN(C)CCONC(=O)[C@@H]1CC[C@@H]2CN1C(=O)N2OS(=O)(=O)O [Example 65, (2S,5R)—N-[2-(Dimethylamino)ethoxy]-7-oxo-6-(sulfooxy)-1,6-diazabicyclo[3.2.1]octane-2-carboxamide] | 100 to 1000 | 100 to 1000 | 1000 to 3000 |  | 1000 to 3000 |
| C[C@H](N)CONC(=O)[C@@H]1CC[C@@H]2CN1C(=O)N2OS(=O)(=O)O [Example 66, (2S,5R)—N-{[(2S)-2-Aminopropyl]oxy}-7-oxo-6-(sulfooxy)-1,6-diazabicyclo[3.2.1]octane-2-carboxamide] | < 100 | 100 to 1000 | 1000 to 3000 |  | 1000 to 3000 |
| C[C@@H](N)CONC(=O)[C@@H]1CC[C@@H]2CN1C(=O)N2OS(=O)(=O)O [Example 67, (2S,5R)—N-{[(2R)-2-Aminopropyl]oxy}-7-oxo-6-(sulfooxy)-1,6-diazabicyclo[3.2.1]octane-2-carboxamide] | < 100 | 100 to 1000 | 1000 to 3000 |  | 1000 to 3000 |
| C[C@@H](CN)ONC(=O)[C@@H]1CC[C@@H]2CN1C(=O)N2OS(=O)(=O)O [Example 68, (2S,5R)—N-{[(2S)-1-Aminopropan-2-yl]oxy}-7-oxo-6-(sulfooxy)-1,6-diazabicyclo[3.2.1]octane-2-carboxamide] | < 100 | < 100 | 100 to 1000 |  | 1000 to 3000 |
| NCCCONC(=O)[C@@H]1CC[C@@H]2CN1C(=O)N2OS(=O)(=O)O [Example 69, (2S,5R)—N-(3-Aminopropoxy)-7-oxo-6-(sulfooxy)-1,6-diazabicyclo[3.2.1]octane-2-carboxamide] | < 100 | 100 to 1000 | 1000 to 3000 |  | 100 to 1000 |
| O=C([C@@H]1CC[C@@H]2CN1C(=O)N2OS(=O)(=O)O)N1CCCO1 [Example 70, Sodium (2S,5R)-2-(1,2-oxazolidin-2-ylcarbonyl)-6-(sulfooxy)-1,6-diazabicyclo[3.2.1]octane-7-one] | < 100 | 100 to 1000 | 100 to 1000 | 100 to 1000 |  |
| O=C(NOCCN1CCOCC1)[C@@H]1CC[C@@H]2CN1C(=O)N2OS(=O)(=O)O [Example 72, Sodium (2S,5R)—N-[2-(morpholin-4-yl)ethoxy]-7-oxo-6-(sulfooxy)-1,6-diazabicyclo[3.2.1]octane-2-carboxamide] | < 100 | < 100 | 100 to 1000 | 100 to 1000 |  |
| O=C(NOCCN1CCCNCC1)[C@@H]1CC[C@@H]2CN1C(=O)N2OS(=O)(=O)O [Example 74, (2S,5R)-7-Oxo-N-[2-(1,4-diazepan-1-yl)ethoxy]-6-(sulfooxy)-1,6-diazabicyclo[3.2.1]octane-2-carboxamide] | < 100 | < 100 | 100 to 1000 |  | 100 to 1000 |
| O=C(NOC[C@@H]1CCN1)[C@@H]1CC[C@@H]2CN1C(=O)N2OS(=O)(=O)O [Example 75, (2S,5R)—N-[(2S)-Azetidin-2-ylmethoxy]-7-oxo-6-(sulfooxy)-1,6-diazabicyclo[3.2.1]octane-2-carboxamide] | < 100 | 100 to 1000 | 100 to 1000 |  | 1000 to 3000 |
| O=C(NOC[C@@H]1CCCN1)[C@@H]1CC[C@@H]2CN1C(=O)N2OS(=O)(=O)O [Example 76, (2S,5R)-7-Oxo-N-[(2S)-pyrrolidin-2-ylmethoxy]-6-(sulfooxy)-1,6-diazabicyclo[3.2.1]octane-2-carboxamide] | < 100 | 100 to 1000 | 100 to 1000 |  | 100 to 1000 |
| O=C(NOC[C@H]1CCCN1)[C@@H]1CC[C@@H]2CN1C(=O)N2OS(=O)(=O)O [Example 77, (2S,5R)-7-Oxo-N-[(2R)-pyrrolidin-2-ylmethoxy]-6-(sulfooxy)-1,6-diazabicyclo[3.2.1]octane-2-carboxamide] | < 100 | 100 to 1000 | 100 to 1000 |  | 100 to 1000 |
| O=C(NOC[C@@H]1CCCCN1)[C@@H]1CC[C@@H]2CN1C(=O)N2OS(=O)(=O)O [Example 78, (2S,5R)-7-Oxo-N-[(2S)-piperidine-2-ylmethoxy]-6-(sulfooxy)-1,6-diazabicyclo[3.2.1]octane-2-carboxamide] | < 100 | 100 to 1000 | 1000 to 3000 |  | 1000 to 3000 |
| O=C(NOC1CNC1)[C@@H]1CC[C@@H]2CN1C(=O)N2OS(=O)(=O)O [Example 79, (2S,5R)—N-(Azetidin-3-yloxy)-7-oxo-6-(sulfooxy)-1,6-diazabicyclo[3.2.1]octane-2-carboxamide] | < 100 | 100 to 1000 | 1000 to 3000 |  | 1000 to 3000 |
| O=C(NO[C@@H]1CCNC1)[C@@H]1CC[C@@H]2CN1C(=O)N2OS(=O)(=O)O [Example 80, (2S,5R)-7-Oxo-N-[(3R)-pyrrolidin-3-yloxy]-6-(sulfooxy)-1,6-diazabicyclo[3.2.1]octane-2-carboxamide] | < 100 | 100 to 1000 | 1000 to 3000 |  | 100 to 1000 |
| O=C(NO[C@H]1CCNC1)[C@@H]1CC[C@@H]2CN1C(=O)N2OS(=O)(=O)O [Example 81, (2S,5R)-7-Oxo-N-[(3S)-pyrrolidin-3-yloxy]-6-(sulfooxy)-1,6-diazabicyclo[3.2.1]octane-2-carboxamide] | < 100 | < 100 | 100 to 1000 |  | 1000 to 3000 |
